Experimental data taken from article PMC7696216, “Bi-Functional Alginate Oligosaccharide–Polymyxin Conjugates for Improved Treatment of Multidrug-Resistant Gram-Negative Bacterial Infections” (Pharmaceutics, 2020).
Read-outs that look alike come from different tables or passages of the source. Positions of bridges follow the written chain, without caps; N, C: chain ends. Non-standard residues stand in square brackets, D forms with d. Residues, ends and D or L forms follow the SMILES beside them. *: point of attachment. X1 = CC[C@H](C)CCCCC(=O)*; Dab = NCC[C@H](N)C(=O)O

Assays:
P. aeruginosa NCTC 10662 = assay type: cell-based, Pseudomonas aeruginosa; conditions: SI = IC50 (µg/mL, HK-2)/MIC (µg/mL)
Description: (§1) The minimum inhibitory concentration (MIC) of colistin (as sulphate salt) and polymyxin B and their conjugates was determined using the broth microdilution method in MH broth in accordance with standard guidelines. Test organisms were suspended in MH broth (100 µL, 5 × 10^5 colony forming units (CFU)/mL) and incubated in 96-well microtitre plates in serial two-fold dilutions of the test compounds. […] Results were expressed as mode (n = 3). […] Selective activities of the polymyxins and OligoG–polymyxin conjugates were calculated as follows:Selectivity index (SI) = IC50 (μg/mL)/MIC (μg/mL).

E. coli AIM-1 = assay: MIC, broth microdilution; assay type: cell-based, Escherichia coli; conditions: broth microdilution, MH broth, 5 × 10^5 CFU/mL, 16–20 h, mode (n = 3)
Description: as §1
(§2) In addition, alginate oligomer–colistin conjugates (3 mg/mL) were incubated in PBS at pH 7 containing bacterial alginate lyase (1 and 10 U/mL) at 37 °C for 24 h, before preparing microtitre plates as described above.

E. coli 5702 = assay: MIC, broth microdilution; assay type: cell-based, Escherichia coli
Description: as §1
(§3) To study the antimicrobial efficacy of test compounds under more clinically relevant conditions, the MIC protocol was performed using AS medium instead of MH broth. The plates were incubated with resazurin as described above.

MTT cytotoxicity assay = assay type: cell-based; conditions: human, HK-2 cells, 72 h incubation, 0–1 mg/mL polymyxin base, ±SEM (n = 18), read-out: Half maximal inhibitory concentration (IC50), cytotoxicity
Description: A 3-(4,5-dimethylthiazol-2-yl)-2,5-diphenyltetrazolium bromide (MTT) assay was used to measure cell viability and proliferation of HK-2 cells. Cells were seeded into sterile 96-well microtitre plates at 1 × 10^5 cells/mL (100 µL/well) and allowed to adhere for 24 h at 37 °C. The following day, the old medium was replaced with test compounds (0–1 mg/mL polymyxin base) dissolved in filter-sterilised K-SFM. After 67 h incubation at 37 °C, filter-sterilised MTT solution (20 µL of a 5 mg/mL solution in PBS) was added to each well and incubated for a further 5 h at 37 °C. Finally, the medium was carefully removed, and the formazan crystals were solubilised in DMSO (100 µL) for 30 min. Absorbance was measured at 550 nm using a Fluostar Omega microplate reader. […] Data are expressed as mean ± SEM (n = 18).

E. coli IR57 = assay type: cell-based, Escherichia coli
Description: as §1
(§4) To account for turbidity caused by mucin, resazurin dye solution (30 µL, 0.01% w/v in dH2O) was added to each well and incubated for a further 3 h at 37 °C. Colour changes were observed and recorded.
as §3

[1] = test system: range of Gram-negative bacterial pathogens; assay: MIC and selectivity index across the panel of isolates; assay type: cell-based; conditions: mean SI over the isolates of Table S4
Description: as §1

[2] = cited from earlier work
Description: In a clinical setting, binding of colistin to sputum biomolecules (e.g., mucin) in the airways could negatively impact antibiotic effectiveness and availability. […] A four-fold increase in the MIC of colistin was also reported when the assay was conducted in AS medium instead of MH broth, thought to be caused by bacterial growth disruption, structural modifications of lipopolysaccharides or direct colistin–mucin interactions. Alt ...

A. baumannii 7789 = assay type: cell-based, Acinetobacter baumannii
Description: as §1, §2, §3

P. aeruginosa NH57388A = assay: MIC, broth microdilution; assay type: cell-based, Pseudomonas aeruginosa
Description: as §1, §3

E. coli NCTC 10418 = assay type: cell-based, Escherichia coli; conditions: SI = IC50 (µg/mL, HK-2)/MIC (µg/mL)
Description: as §1

A. baumannii MDR ACB = assay type: cell-based, Acinetobacter baumannii; conditions: for MIC: resazurin read-out
Description: as §1, §4

K. pneumoniae IR25 = assay type: cell-based, Klebsiella pneumoniae; conditions: for MIC: resazurin read-out
Description: as §1, §4

P. aeruginosa MDR 301 = assay type: cell-based, Pseudomonas aeruginosa
Description: as §1, §2, §3

K. pneumoniae KP05 506 = assay type: cell-based, Klebsiella pneumoniae
Description: as §1, §2, §3

E. coli PN21 = assay: MIC, broth microdilution; assay type: cell-based, Escherichia coli; conditions: SI = IC50 (µg/mL, HK-2)/MIC (µg/mL)
Description: as §1

P. aeruginosa R22 = assay type: cell-based, Pseudomonas aeruginosa; conditions: for MIC: resazurin read-out
Description: as §1, §4

[3] = AS (artificial sputum) medium, resazurin read-out
[4] = MH broth (Table S7 comparison with AS medium)
[5] = MH broth + porcine stomach (type II) mucin 0.2% w/v
[6] = MH broth + porcine stomach (type II) mucin 2% w/v

CC[C@H](C)CCCCC(=O)N[C@@H](CCN)C(=O)N[C@H](C(=O)N[C@@H](CCN)C(=O)N[C@H]1CCNC(=O)[C@H]([C@@H](C)O)NC(=O)[C@H](CCN)NC(=O)[C@H](CCN)NC(=O)[C@H](CC(C)C)NC(=O)[C@@H](Cc2ccccc2)NC(=O)[C@H](CCN)NC1=O)[C@@H](C)O [Polymyxin B, polymyxin B] (X1-[Dab]T[Dab][Dab][Dab][dF]L[Dab][Dab]T; lactam 4-C (inferred); N-terminus assumed)
Selectivity index (SI) value (P. aeruginosa NCTC 10662): 175 | MIC (E. coli AIM-1): <0.004 μg/mL Drug Base | MIC (E. coli 5702; [3]): 0.25 μg/mL Drug Base | MIC (E. coli 5702; [4]): 0.063 μg/mL Drug Base | IC50 at 72 h (MTT cytotoxicity assay): 11 µg/mL | MIC (E. coli IR57; [3]): 0.125 μg/mL Drug Base | MIC (E. coli IR57; [4]): 0.5 μg/mL Drug Base | MIC (E. coli IR57; MH broth + porcine stomach (type II) mucin 0.2% w/v, resazurin read-out): 1 μg/mL Drug Base | MIC (E. coli IR57; MH broth + porcine stomach (type II) mucin 2% w/v, resazurin read-out): 4 μg/mL Drug Base | MIC (E. coli IR57; MH broth, mucin 0%, resazurin read-out): 0.5 μg/mL Drug Base | Selectivity index (SI) value, Mean [1]: 66 | increase in MIC values when mucin was added to the bacterial culture medium [2]: > 100 fold | MIC (A. baumannii 7789; [3]): 0.5 μg/mL Drug Base | MIC (A. baumannii 7789; [4]): 0.125 μg/mL Drug Base | Selectivity index (SI) value (A. baumannii 7789; SI = IC50 (µg/mL, HK-2)/MIC (µg/mL), A. baumannii 7789): 88 | MIC (P. aeruginosa NH57388A; [3]): 1 μg/mL Drug Base | MIC (P. aeruginosa NH57388A; [4]): 0.25 μg/mL Drug Base | Selectivity index (SI) value (P. aeruginosa NH57388A; SI = IC50 (µg/mL, HK-2)/MIC (µg/mL), P. aeruginosa NH57388A): 44 | Selectivity index (SI) value (E. coli NCTC 10418): 1 | MIC (A. baumannii MDR ACB; [5]): 1 μg/mL Drug Base | MIC (A. baumannii MDR ACB; [6]): 16 μg/mL Drug Base | MIC (A. baumannii MDR ACB; MH broth, mucin 0%): 0.125 μg/mL Drug Base | Selectivity index (SI) value (A. baumannii MDR ACB; SI = IC50 (µg/mL, HK-2)/MIC (µg/mL), A. baumannii MDR ACB): 88 | MIC (K. pneumoniae IR25; [5]): 4 μg/mL Drug Base | MIC (K. pneumoniae IR25; [6]): 64 μg/mL Drug Base | MIC (K. pneumoniae IR25; MH broth, mucin 0%): 0.125 μg/mL Drug Base | Selectivity index (SI) value (K. pneumoniae IR25; SI = IC50 (µg/mL, HK-2)/MIC (µg/mL), K. pneumoniae IR25): 88 | MIC (P. aeruginosa MDR 301; [3]): 4 μg/mL Drug Base | MIC (P. aeruginosa MDR 301; [4]): 0.5 μg/mL Drug Base | Selectivity index (SI) value (P. aeruginosa MDR 301; SI = IC50 (µg/mL, HK-2)/MIC (µg/mL), P. aeruginosa MDR 301): 22 | MIC (K. pneumoniae KP05 506; [3]): 1 μg/mL Drug Base | MIC (K. pneumoniae KP05 506; [4]): 0.125 μg/mL Drug Base | Selectivity index (SI) value (K. pneumoniae KP05 506; SI = IC50 (µg/mL, HK-2)/MIC (µg/mL), K. pneumoniae KP05 506): 88 | Selectivity index (SI) value (E. coli PN21): 3 | MIC (P. aeruginosa R22; [5]): 4 μg/mL Drug Base | MIC (P. aeruginosa R22; [6]): 64 μg/mL Drug Base | MIC (P. aeruginosa R22; MH broth, mucin 0%): 0.25 μg/mL Drug Base | Selectivity index (SI) value (P. aeruginosa R22; SI = IC50 (µg/mL, HK-2)/MIC (µg/mL), P. aeruginosa R22): 44
